The results in this text go back to ChEMBL document CHEMBL5370591, “A Potent and Narrow-Spectrum Antibacterial against Clostridioides difficile Infection” (J Med Chem, 2023).

In brackets after ≈: the same amount, converted by molar mass.

The test relates to Clostridioides difficile. Kind of test: Antibacterial activity against Clostridium difficile ATCC 43255 measured after 48 hrs by two fold serial dilution method. It counts as functional.

The molecule `O=[N+]([O-])c1cn(CCO)c(-c2nc(-c3ccc(OC4CCCC4)cc3)no2)n1` displayed an MIC greater than 128 µg/mL.

The molecule `Oc1ccc(-c2nc(N3CCN(c4ccccc4)CC3)no2)cc1` yielded an MIC greater than 128 µg/mL.

Molecule `O=Cc1ccc(-c2noc(-c3ccc(O)cc3)n2)cc1` gave an MIC greater than 128 µg/mL.

For the molecule `FC(F)(F)Oc1ccc(-c2noc(-c3ccc4[nH]ccc4c3)n2)cc1`, the MIC is greater than 128 µg/mL.

The molecule `c1cc2cc(-c3nc(-c4ccc5occc5c4)no3)ccc2[nH]1` had an MIC greater than 128 µg/mL.

The molecule `Oc1ccc(-c2nc(-c3ccc(OC4CCC4)cc3)no2)cc1` had an MIC greater than 128 µg/mL.

Regarding `O=C(O)c1ccc(-c2nc(-c3ccc(OC4CCCC4)cc3)no2)cc1`, the MIC is greater than 128 µg/mL.

The molecule `Oc1ccc(-c2nc(-c3ccc(OC4CCNCC4)cc3)no2)cc1` showed an MIC of 64 µg/mL (≈ 190 µM).

Take `Cn1c(-c2nc(-c3ccc(OC4CCCC4)cc3)no2)cnc1[N+](=O)[O-]`: the minimum inhibitory concentration (MIC) worked out at 32 µg/mL (≈ 90.1 µM).

`Clc1cccc(N2CCN(c3noc(-c4ccc5[nH]ccc5c4)n3)CC2)c1` gave an MIC greater than 128 µg/mL.

Consider `Nc1cc(-c2nc(-c3ccc(Oc4ccc(C(F)(F)F)cc4)cc3)no2)cnc1O`, for which the MIC was greater than 128 µg/mL.

For `FC(F)(F)c1ccc(Oc2ccc(-c3noc(-c4ccncc4)n3)cc2)cc1`, the MIC was greater than 128 µg/mL.

On to `c1cc2cc(-c3nc(-c4ccc5c(c4)OCO5)no3)ccc2[nH]1`, for which the MIC was greater than 128 µg/mL.

`FC(F)(F)c1ccc(Oc2ccc(-c3noc(-c4ccc(Br)cc4)n3)cc2)cc1` showed an MIC greater than 128 µg/mL.

`O=C(Nc1c[nH]nc1-c1nc(-c2ccc(Oc3ccc(C(F)(F)F)cc3)cc2)no1)c1ccccn1` displayed an MIC greater than 128 µg/mL.

Molecule `Oc1cc(-c2nc(-c3ccc(Oc4ccc(C(F)(F)F)cc4)cc3)no2)cc(F)c1O` showed an MIC greater than 128 µg/mL.

Molecule `N#Cc1ccc(Oc2ccc(-c3noc(-c4ccc(O)cc4)n3)cc2)cc1` gave an MIC greater than 128 µg/mL.

Molecule `FC(F)(F)c1ccc(Oc2ccc(-c3noc(-c4n[nH]cc4I)n3)cc2)cc1` registered an MIC greater than 128 µg/mL.

`CN1CCN(c2ccc(-c3noc(-c4ccc(O)cc4)n3)cc2)CC1` came in with an MIC greater than 128 µg/mL.

For `Nc1ccc(-c2nc(-c3ccc(Oc4ccc(C(F)(F)F)cc4)cc3)no2)cc1F`, the MIC is greater than 128 µg/mL.

`Nc1cc(-c2noc(-c3ccc(O)cc3)n2)ccc1Oc1ccccc1` displayed an MIC greater than 128 µg/mL.

Consider `Oc1ccc(Oc2ccc(-c3noc(-c4ccc(O)cc4)n3)cc2)cc1`, for which inhibition of growth (MIC) required 64 µg/mL (≈ 185 µM).

`Nc1c[nH]nc1-c1nc(-c2ccc(Oc3ccc(C(F)(F)F)cc3)cc2)no1`: the MIC is greater than 128 µg/mL.

In the case of `c1cc2cc(-c3nc(-c4ccc(OC5CCCC5)cc4)no3)ccc2[nH]1`, the MIC is 8 µg/mL (≈ 23.2 µM).

Consider `NC1CCN(c2ccc(-c3noc(-c4ccc(O)cc4)n3)cc2)CC1`, for which the MIC turned out to be 64 µg/mL (≈ 190 µM).

In the case of `Cl.NCc1ccc(-c2nc(-c3ccc(OC4CCCC4)cc3)no2)cc1`, the MIC was found to be 8 µg/mL.

`Oc1ccc(-c2nc(N3CCN(c4cccc(Cl)c4)CC3)no2)cc1` displayed an MIC greater than 128 µg/mL.

`O=C(NNC(=O)c1ccc(OC2CCCC2)cc1)c1ccc(O)cc1`: the MIC is greater than 128 µg/mL.

`FC(F)(F)c1ccc(Oc2ccc(-c3noc(-c4n[nH]cc4Cl)n3)cc2)cc1` registered an MIC greater than 128 µg/mL.

Take `c1cc(-c2noc(-c3ccc4c(c3)CCN4)n2)ccc1OC1CCCC1`: the MIC is greater than 128 µg/mL.

For the molecule `O=C1C[C@@H](c2nc(-c3ccc(Oc4ccc(C(F)(F)F)cc4)cc3)no2)CN1`, the MIC is greater than 128 µg/mL.

Regarding `Oc1ccc(/C=C/c2nc(-c3ccc(OC4CCCC4)cc3)no2)cc1`, 64 µg/mL (≈ 184 µM) was the least that counted as inhibitory (MIC).

`Fc1ccc2oc3ccc(-c4noc(-c5ccc6[nH]ccc6c5)n4)cc3c2c1` showed an MIC greater than 128 µg/mL.

For the molecule `Oc1ccc(-n2cc(-c3ccc(Oc4ccccc4)cc3)nn2)cc1`, the MIC is greater than 128 µg/mL.

Consider `COc1ccc(-c2noc(-c3ccc(O)cc3)n2)cc1`, for which the minimal inhibitory concentration (MIC) is greater than 128 µg/mL.

As to `C[C@@H](NC(=O)OC(C)(C)C)C(=O)N[C@H](C)c1nc(-c2ccc(OC3CCCC3)cc2)no1`, the MIC was greater than 128 µg/mL.

Turning to `Cl.O=[N+]([O-])c1c[nH]c(-c2nc(-c3ccc(OC4CCNCC4)cc3)no2)n1`, the MIC is greater than 128 µg/mL.

In turn, `Nc1ccc(-c2nc(-c3ccc(OC4CCCC4)cc3)no2)cc1` came in with an MIC greater than 128 µg/mL.

`OCC#Cc1c[nH]nc1-c1nc(-c2ccc(Oc3ccc(C(F)(F)F)cc3)cc2)no1` registered an MIC greater than 128 µg/mL.

Take `COc1cc(-c2nc(-c3ccc(Oc4ccc(C(F)(F)F)cc4)cc3)no2)cc(F)c1O`: 16 µg/mL (≈ 35.8 µM) was the least that counted as inhibitory (MIC).

For `COc1ccc(-c2nc(-c3ccc(Oc4ccc(C(F)(F)F)cc4)cc3)no2)cc1OC`, the MIC is greater than 128 µg/mL.

Regarding `Nc1cncc(-c2nc(-c3ccc(Oc4ccc(C(F)(F)F)cc4)cc3)no2)c1`, the MIC is greater than 128 µg/mL.

Take `Clc1ccc(N2CCN(c3noc(-c4ccc5[nH]ccc5c4)n3)CC2)cc1Cl`: the MIC is greater than 128 µg/mL.

Regarding `Oc1ccc(-c2noc(-c3ccc(O)cc3)n2)cc1`, the MIC is 128 µg/mL (≈ 503 µM).

The molecule `Oc1ccc(-c2nc(-c3ccc(OC4CCOC4)cc3)no2)cc1` (centres undefined) gave an MIC greater than 128 µg/mL.

Consider `Oc1ccc(-c2nc(-c3ccc(OC4CC4)cc3)no2)cc1`, for which the MIC is greater than 128 µg/mL.

Molecule `O=[N+]([O-])c1ccc(-c2nc(-c3ccc(Oc4ccc(C(F)(F)F)cc4)cc3)no2)cc1` showed an MIC greater than 128 µg/mL.

Consider `Clc1nc(-c2ccc(OC3CCCC3)cc2)no1`, for which the MIC was greater than 128 µg/mL.

Consider `CCC(C)Nc1c[nH]nc1-c1nc(-c2ccc(Oc3ccc(C(F)(F)F)cc3)cc2)no1` (centres undefined), for which the MIC is greater than 128 µg/mL.

With `FC(F)(F)c1ccc(Oc2ccc(-c3noc(-c4cn[nH]n4)n3)cc2)cc1`, the MIC is greater than 128 µg/mL.

For `FC(F)(F)c1ccc(Oc2ccc(-c3noc(-c4n[nH]cc4Nc4cc5ccccc5[nH]4)n3)cc2)cc1`, the MIC was greater than 128 µg/mL.

`COC(OC)c1ccc(-c2noc(-c3ccc(O)cc3)n2)cc1` showed an MIC greater than 128 µg/mL.

Turning to `Oc1ccc(-c2cc(-c3ccc(Oc4ccccc4)cc3)no2)cc1`, the MIC was greater than 128 µg/mL.

The molecule `O=C(c1ccc(-c2noc(-c3ccc(O)cc3)n2)cc1)C(F)(F)F` had an MIC of 8 µg/mL (≈ 23.9 µM).

`Oc1ccc(-c2nc(-c3ccc(C(O)C(F)(F)F)cc3)no2)cc1` (centres undefined) showed an MIC of 32 µg/mL (≈ 95.2 µM).

`CC(C)S(=O)(=O)Oc1ccc(-c2noc(-c3ccc(O)cc3)n2)cc1` gave an MIC greater than 128 µg/mL.

As for `CN1CCC(Oc2ccc(-c3noc(-c4nc([N+](=O)[O-])c[nH]4)n3)cc2)C1.Cl` (centres undefined), the MIC was greater than 128 µg/mL.

On to `Oc1ccc(-c2nc(-c3ccc4c(c3)OCO4)no2)cc1`, for which the MIC is greater than 128 µg/mL.

The molecule `C#CCOc1ccc(-c2noc(-c3ccc(O)cc3)n2)cc1` showed an MIC of 128 µg/mL (≈ 438 µM).

The molecule `Oc1ccc(-c2nc(-c3ccc(Oc4ccccc4)c(Br)c3)no2)cc1` returned an MIC greater than 128 µg/mL.

`FC(F)(F)c1ccc(Oc2ccc(-c3noc(-c4c[nH]cn4)n3)cc2)cc1` returned a minimal inhibitory concentration (MIC) of 8 µg/mL (≈ 21.5 µM).

Consider `c1nc2cc(-c3nc(-c4ccc(OC5CCCC5)cc4)no3)ccc2[nH]1`, for which the MIC came out at 128 µg/mL (≈ 370 µM).

Molecule `O=[N+]([O-])c1c[nH]nc1-c1nc(-c2ccc(Oc3ccccc3)cc2)no1` gave an MIC greater than 128 µg/mL.

`COc1ccc(-c2noc(-c3ccc(O)cc3)n2)cc1OC`: the minimal inhibitory concentration (MIC) was greater than 128 µg/mL.

Turning to `Oc1ccc(Cc2nc(-c3ccc(OC4CCCC4)cc3)no2)cc1`, the MIC is 16 µg/mL (≈ 47.6 µM).

Regarding `Cl.NCCCOc1ccc(-c2noc(-c3ccc(O)cc3)n2)cc1`, 64 µg/mL was the least that counted as inhibitory (MIC).

With `Oc1ccc(-c2nc(-c3ccc(OC(F)(F)F)cc3)no2)cc1`, the MIC was 64 µg/mL (≈ 199 µM).

`Oc1ccc(Nc2nc(-c3ccc(OC4CCCC4)cc3)no2)cc1` gave an MIC of 32 µg/mL (≈ 94.8 µM).

Take `C#CCCOc1ccc(-c2noc(-c3ccc(O)cc3)n2)cc1`: the MIC is greater than 128 µg/mL.

As to `COc1ccc2oc3ccc(-c4noc(-c5n[nH]cc5[N+](=O)[O-])n4)cc3c2c1`, the MIC was 64 µg/mL (≈ 170 µM).

Regarding `Oc1nc(-c2ccc(OC3CCCC3)cc2)no1`, the lowest concentration to inhibit growth (MIC) was 64 µg/mL (≈ 260 µM).

`Oc1ccc(-c2nc(-c3ccc(Oc4ccc(C(F)(F)F)cc4)nc3)no2)cc1` had an MIC greater than 128 µg/mL.

For `CC(C)(C)OC(=O)N1CCC(Oc2ccc(-c3noc(-c4nc([N+](=O)[O-])c[nH]4)n3)cc2)CC1`, the MIC was greater than 128 µg/mL.

In the case of `FC(F)(F)c1ccc(Oc2ccc(-c3noc(-c4nc[nH]n4)n3)cc2)cc1`, the MIC is greater than 128 µg/mL.

As for `CCCCNc1c[nH]nc1-c1nc(-c2ccc(Oc3ccc(C(F)(F)F)cc3)cc2)no1`, the MIC is greater than 128 µg/mL.

`FC(F)(F)c1ccc(Oc2ccc(-c3noc(-c4n[nH]cc4NC4CCCC4)n3)cc2)cc1` showed an MIC greater than 128 µg/mL.

For the molecule `FC(F)(F)c1ccc(Oc2ccc(-c3noc(-c4n[nH]cc4Nc4n[nH]c5ccccc45)n3)cc2)cc1`, the MIC was greater than 128 µg/mL.

With `FC(F)(F)c1ccc(Oc2ccc(-c3noc(-c4n[nH]cc4NC4CCCCC4)n3)cc2)cc1`, the MIC was greater than 128 µg/mL.

`O=C(Nc1c[nH]nc1-c1nc(-c2ccc(Oc3ccc(C(F)(F)F)cc3)cc2)no1)c1ccccc1` showed a minimum inhibitory concentration (MIC) greater than 128 µg/mL.

As to `Oc1ccc(-c2nc(-c3ccc4oc5ccc(F)cc5c4c3)no2)cc1`, the MIC was greater than 128 µg/mL.

As for `Cl.O=[N+]([O-])c1c[nH]c(-c2nc(-c3ccc(CN4CCCC4)cc3)no2)n1`, the MIC is greater than 128 µg/mL.

For `O=[N+]([O-])c1ccc(-c2nc(-c3ccc(OC4CCCC4)cc3)no2)cc1`, the MIC is greater than 128 µg/mL.

Molecule `Oc1cccc(/C=C/c2nc(-c3ccc(OC4CCCC4)cc3)no2)c1` yielded an MIC greater than 128 µg/mL.

Molecule `Nc1cc(Oc2ccccc2)ccc1-c1noc(-c2ccc(O)cc2)n1` returned an MIC greater than 128 µg/mL.

Regarding `Oc1ccc(-c2nc(-c3ccc(N4CCOCC4)cc3)no2)cc1`, the MIC was greater than 128 µg/mL.

On to `Oc1ccc(-c2nc(-c3ccc4oc5ccccc5c4c3)no2)cc1`, for which the MIC is greater than 128 µg/mL.

Molecule `C[C@@H](NC(=O)OC(C)(C)C)c1nc(-c2ccc(OC3CCCC3)cc2)no1` registered an MIC greater than 128 µg/mL.

Molecule `c1cc2cc(-c3nc(-c4ccc5c(c4)CCO5)no3)ccc2[nH]1` came in with an MIC greater than 128 µg/mL.

The molecule `C[C@@H](N)c1nc(-c2ccc(OC3CCCC3)cc2)no1` yielded an MIC greater than 128 µg/mL.

On to `Oc1ccc(-c2nc(-c3ccc(Oc4ccc(C(F)(F)F)cc4)cc3)no2)cn1`, for which the MIC was greater than 128 µg/mL.

`COc1ccc(-c2nc(-c3ccc(Oc4ccc(C(F)(F)F)cc4)cc3)no2)cc1[N+](=O)[O-]` showed an MIC greater than 128 µg/mL.

`O=[N+]([O-])c1c[nH]c(Nc2c[nH]nc2-c2nc(-c3ccc(Oc4ccc(C(F)(F)F)cc4)cc3)no2)c1` registered an MIC of 8 µg/mL (≈ 16.1 µM).

The molecule `FC(F)(F)c1ccc(Oc2ccc(-c3noc(-c4n[nH]cc4Br)n3)cc2)cc1` displayed an MIC greater than 128 µg/mL.

Molecule `CC(C)(C)Oc1ccc(-c2noc(-c3ccc(O)cc3)n2)cc1` returned an MIC greater than 128 µg/mL.

Usually MIC stands for the least concentration at which growth counts as inhibited. The low end stands for a more susceptible organism, the high end for a less susceptible organism.
